According to patent publication US5814622A, “Compounds derived from boronic acid” (Adir et Compagnie, priority 1996, dated 1998):

How the values were obtained:
[1] = test system: plasma from the dogs (ACT); assay: ACT in dogs after oral administration; type: in vivo; settings: dog; for Increase in ACT (number of times that the initial time is increased), 1 hour / Increase in ACT (number of times that the initial time is increased), 4 hours: 5 mg/kg
Procedure: (§2) Male or female dogs weighing 11-28 kg are treated orally with the products of the invention (5 mg/kg) or with the reference substance, DUP 714, at a concentration of 2.5 mg/kg. The coagulation times (TT, ACT) are determined in samples of plasma from the dogs 10 min before and 30 min, 1 hour, 2 hours, 4 hours and 6 hours after administration of the products. […] The number of platelets is also determined in each sample using a T450 counter (Coultronics).
(§3) The values show the number of times that the initial time is increased.

[2] = test system: plasma from the dogs (TT); assay: TT in dogs after oral administration; type: in vivo; settings: dog; for Increase in TT (number of times that the initial time is increased), 1 hour / Increase in TT (number of times that the initial time is increased), 4 hours: 5 mg/kg
Procedure: as §2, §3

[3] = test system: thrombin; settings: literature; cited from earlier work
[4] = test system: platelets; assay: Thrombopenic activity after oral administration to dogs; type: in vivo; settings: dog
Procedure: Male or female dogs weighing 11-28 kg are treated orally with the products of the invention (5 mg/kg) or with the reference substance, DUP 714, at a concentration of 2.5 mg/kg. […] The number of platelets is also determined in each sample using a T450 counter (Coultronics).
Under the conditions of our experiments, the number of platelets before the treatment is about 300,000 platelets/μl; the TT is about 19 seconds and the ACT is about 18 seconds.

[5] = biological target: T1, Plasmin (Homo sapiens, UniProt P00747); assay: Inhibition of plasmin; type: biochemical; settings: purified human plasmin 2 nM, substrate <Glu-Phe-Lys-pNA 0.05 mM, 20° C., pH 7.4
T1 construct: Products Thrombin Plasmin t-PA u-PA; purchased Stage [sic]

[6] = biological target: T2, human thrombin (Homo sapiens, UniProt P00734); assay: Inhibition of human thrombin (fibrinogen to fibrin); type: biochemical; settings: human thrombin 0.7 nM, purified human fibrinogen, 20° C., pH 7.4
T2 construct: human thrombin (Sigma, specific activity 3230 UNIH/mg); purchased Sigma

[7] = test system: human plasma (thrombin time); assay: Anticoagulant activity: thrombin time (TT) in human plasma; type: biochemical; settings: 37° C., 2 min preincubation
Procedure: (§1) Anticoagulant activity, measurement of the thrombin time and the activated cephalin time in man In order to evaluate the anticoagulant activity of the compounds of the invention, the thrombin time (TT) and the activated cephalin time (ACT) were determined in samples of human plasma. An ST4 coagulometer (Diagnostica Stago, France) was used. […] The TT is determined with the Thrombin Prest reagent and the ACT with the Automat […] reagent. The inhibitor or the solvent (10 μl) is added to the plasma (90 μl), then the mixture is incubated for 2 minutes at 37° C. 100 μl of Thrombin […]) or of Automat […]) are added while starting the chronometer. […] The activity of an antagonist is evaluated by its capacity to prolong the TT and the ACT relative to the control.

[8] = biological target: T3, human urokinase (u-PA) (Homo sapiens, UniProt P00749); assay: Inhibition of urokinase (u-PA); type: biochemical; settings: purified human u-PA 2 nM, substrate <Glu-Gly-Arg-pNA 0.56 mM, 20° C., pH 7.4
T3 construct: purchased Sigma

[9] = biological target: plasminogen tissue activator (t-PA) (Homo sapiens, UniProt P00750); assay: Inhibition of plasminogen tissue activator (t-PA); type: biochemical; settings: t-PA 2 nM, substrate H-D-Ile-Pro-Arg-pNA 0.48 mM, 20° C., pH 7.4
[10] = test system: human plasma (activated cephalin time); assay: Anticoagulant activity: activated cephalin time (ACT) in human plasma; type: biochemical; settings: 37° C., 2 min preincubation
Procedure: as §1

[11] = test system: thrombin; settings: prior knowledge; cited from earlier work

Sequence of plasminogen tissue activator (t-PA) (P00750 23-562 limits assumed): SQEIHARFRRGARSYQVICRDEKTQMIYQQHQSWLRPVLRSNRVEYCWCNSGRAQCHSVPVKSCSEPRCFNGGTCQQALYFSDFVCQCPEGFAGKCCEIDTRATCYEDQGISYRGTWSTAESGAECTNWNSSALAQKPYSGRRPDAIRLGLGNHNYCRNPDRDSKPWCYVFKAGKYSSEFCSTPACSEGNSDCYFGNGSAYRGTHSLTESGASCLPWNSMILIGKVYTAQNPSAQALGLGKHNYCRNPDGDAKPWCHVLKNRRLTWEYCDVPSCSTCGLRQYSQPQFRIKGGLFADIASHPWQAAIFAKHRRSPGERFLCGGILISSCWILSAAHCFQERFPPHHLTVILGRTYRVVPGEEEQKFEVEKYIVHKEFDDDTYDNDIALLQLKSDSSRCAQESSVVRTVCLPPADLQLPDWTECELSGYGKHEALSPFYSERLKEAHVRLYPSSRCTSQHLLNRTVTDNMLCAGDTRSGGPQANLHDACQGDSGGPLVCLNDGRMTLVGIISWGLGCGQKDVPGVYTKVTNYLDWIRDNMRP
T1 sequence (P00747 581-810 limits assumed): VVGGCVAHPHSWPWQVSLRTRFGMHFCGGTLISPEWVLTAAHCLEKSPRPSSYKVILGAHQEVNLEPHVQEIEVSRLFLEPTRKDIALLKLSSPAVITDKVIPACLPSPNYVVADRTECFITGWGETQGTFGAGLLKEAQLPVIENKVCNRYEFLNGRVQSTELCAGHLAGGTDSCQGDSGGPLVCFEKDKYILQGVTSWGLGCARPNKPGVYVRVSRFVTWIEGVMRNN
T1 sequence (P00747 97-580 partner limits assumed): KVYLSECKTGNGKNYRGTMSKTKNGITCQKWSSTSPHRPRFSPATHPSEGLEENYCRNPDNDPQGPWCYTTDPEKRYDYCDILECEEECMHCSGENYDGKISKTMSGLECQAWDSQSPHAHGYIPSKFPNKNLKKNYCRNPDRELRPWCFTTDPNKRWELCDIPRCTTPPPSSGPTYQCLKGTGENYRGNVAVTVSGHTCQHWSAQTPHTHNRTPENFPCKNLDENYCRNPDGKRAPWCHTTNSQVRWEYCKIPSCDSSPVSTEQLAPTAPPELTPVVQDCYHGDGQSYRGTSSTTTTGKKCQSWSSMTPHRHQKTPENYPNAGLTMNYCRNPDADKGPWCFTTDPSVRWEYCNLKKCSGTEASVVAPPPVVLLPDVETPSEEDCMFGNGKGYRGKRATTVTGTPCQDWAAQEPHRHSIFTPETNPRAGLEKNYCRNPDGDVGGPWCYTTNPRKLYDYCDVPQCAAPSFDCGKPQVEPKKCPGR

Row | Compound | Thrombopenias observed 1 hour after oral administration to dogs ([4]; 2.5 mg/kg, 1 hour) | fall in number of platelets ([4]; 2.5 mg/kg, 1 hour) | IC50 [5] | IC50 [6] | IC50 [8] | Thrombopenias observed 1 hour after oral administration to dogs ([4]; 5 mg/kg, 1 hour) | IC50 [9] | increase of ACT in animals, in words [1] | increase of TT in animals, in words [2] | thrombin inhibition, in words [3] | effect on number of platelets, in words ([4]; 2.5 mg/kg) | Increase in ACT (number of times that the initial time is increased), 1 hour [1] | Increase in ACT (number of times that the initial time is increased), 4 hours [1] | Increase in TT (number of times that the initial time is increased), 1 hour [2] | Increase in TT (number of times that the initial time is increased), 4 hours [2] | TT Ctt2 (concentration which multiplies the coagulation time by 2) [7] | ACT Ctt2 (concentration which multiplies the coagulation time by 2) [10] | activity via the oral route, in words [11]
1 | CC(=O)N[C@H](Cc1ccccc1)C(=O)N1CCC[C@H]1C(=O)N[C@@H](CCCNC(=N)N)B(O)O [DUP 714, Ac-(D)Phe-Pro-Arg boronic acid, reference compound] | 55% | 55±14% |  |  |  |  |  | appreciably increase | appreciably increase | thrombin inhibitor | lowers the number of platelets appreciably and reversibly |  |  |  |  |  |  | 
2 | Cl.N=C(N)NCCC[C@H](NC(=O)c1ccc(C23CCC(Cl)(CC2)CC3)cc1)B(O)O [Ex. 6, 1-(R)-[4-(4-Chlorobicyclo[2.2.2]oct-1-yl)benzoylamino]-4-guanidinobutylboronic acid hydrochloride] |  |  | 2040 nM | 9.7 nM | 30000 nM | 0% | 290 nM |  |  |  |  | 4 times | 2 times | 30 times | 10 times | 0.75 µM | 3.13 µM | 
3 | N=C(N)NCCC[C@H](NC(=O)C1(C(=O)NCc2ccccc2)CCCC1)B(O)O.O=S(=O)(O)c1ccccc1 [Ex. 22, 1-(R)-(1-Benzylaminocarbonylcyclopentanecarboxamido)-4-guanidinobutylboronic acid benzenesulfonate] |  |  | 8630 nM | 4.9 nM | 780 nM | 0% | 1350 nM |  |  |  |  | 6 times | 2 times | 20 times | 8 times | 0.30 µM | 1.58 µM | 
4 | N=C(N)NCCC[C@H](NC(=O)C1(C(=O)NCCc2ccccc2)CCCC1)B(O)O.O=S(=O)(O)c1ccccc1 [Ex. 83, 1-(R)-(1-Phenethylaminocarbonylcyclopentanecarboxamido)-4-guanidinobutylboronic acid benzenesulfonate] |  |  | 6880 nM | 2.4 nM | 1200 nM | 0% | 1560 nM |  |  |  |  | 7 times | 4 times | > 30 times | 18 times | 0.13 µM | 0.56 µM | 
5 | COc1cccc(CCNC(=O)C2(C(=O)N[C@@H](CCCNC(=N)N)B(O)O)CCCC2)c1.O=S(=O)(O)c1ccccc1 [Ex. 94, 1-(R)-[1-(3-Methoxyphenethylaminocarbonyl)cyclopentanecarboxamido]-4-guanidinobutylboronic acid benzenesulfonate] |  |  | 4060 nM | 3.9 nM | 1000 nM | 0% | 1410 nM |  |  |  |  | 9 times | 4 times | 17 times | 21 times | 0.32 µM | 1.77 µM | 
6 | COc1ccc(CCNC(=O)C2(C(=O)N[C@@H](CCCNC(=N)N)B(O)O)CCCC2)cc1OC [Ex. 103, 1-(R)-[1-(3,4-Dimethoxyphenethylaminocarbonyl)cyclopentanecarboxamido]-4-guanidinoboronic acid benzensulfonate] |  |  | 3280 nM | 4 nM | 1020 nM | 0% | 1440 nM |  |  |  |  | 6 times | 4 times | > 30 times | 24 times | 0.29 µM | 1.67 µM | 
7 | hirudin |  |  |  |  |  |  |  |  |  |  |  |  |  |  |  |  |  | not being active via the oral route
8 | hirulog-1: Direct inhibitors of thrombin, currently in clinical development [reference compound] |  |  |  |  |  |  |  |  |  |  |  |  |  |  |  |  |  | not being active via the oral route

The next lines start with results.

Row | Thrombopenias observed 1 hour after oral administration to dogs ([4]; 2.5 mg/kg, 1 hour) | fall in number of platelets ([4]; 2.5 mg/kg, 1 hour) | IC50 [5] | IC50 [6] | IC50 [8] | Thrombopenias observed 1 hour after oral administration to dogs ([4]; 5 mg/kg, 1 hour) | IC50 [9] | Compound | increase of ACT in animals, in words [1] | increase of TT in animals, in words [2] | thrombin inhibition, in words [3] | effect on number of platelets, in words ([4]; 2.5 mg/kg) | Increase in ACT (number of times that the initial time is increased), 1 hour [1] | Increase in ACT (number of times that the initial time is increased), 4 hours [1] | Increase in TT (number of times that the initial time is increased), 1 hour [2] | Increase in TT (number of times that the initial time is increased), 4 hours [2] | TT Ctt2 (concentration which multiplies the coagulation time by 2) [7] | ACT Ctt2 (concentration which multiplies the coagulation time by 2) [10] | activity via the oral route, in words [11]
9 |  |  | 1960 nM | 9.3 nM | > 33000 nM | 0% | 810 nM | COC12CCC(c3ccc(C(=O)N[C@@H](CCCNC(=N)N)B(O)O)cc3)(CC1)CC2.Cl [Ex. 3, 1-(R)-[4-(4-Methoxybicyclo[2.2.2]oct-1-yl)benzoylamino]-4-guanidinobutylboronic acid hydrochloride] |  |  |  |  | 19 times | 14 times | 16 times | 12 times | 0.32 µM | 1.25 µM | 
10 |  |  | 2100 nM | 6.6 nM | 15400 nM | 40% | 93 nM | Cl.N=C(N)NCCC[C@H](NC(=O)c1ccc(C23CCC(O)(CC2)CC3)cc1)B(O)O [Ex. 12, 1-(R)-[4-(4-Hydroxybicyclo[2.2.2]oct-1-yl)benzoylamino]-4-guanidinobutylboronic acid hydrochloride] |  |  |  |  | > 30 times | > 30 times | 24 times | 19 times | 0.18 µM | 0.78 µM | 
11 |  |  | 531 nM | 2.7 nM | 5610 nM | 0% | 1540 nM | COC12CCC(c3cccc(C(=O)N[C@@H](CCCNC(=N)N)B(O)O)c3)(CC1)CC2.Cl [Ex. 51, 1-(R)-[3-(4-Methoxybicyclo[2.2.2]oct-1-yl)benzoylamino]-4-guanidinobutylboronic acid hydrochloride] |  |  |  |  | 3 times | 2 times | 22 times | 19 times | 0.15 µM | 0.84 µM | 
12 |  |  | 692 nM | 6.5 nM | > 33000 nM | 0% | 709 nM | Cl.N=C(N)NCCC[C@H](NC(=O)c1cccc(C23CCC(O)(CC2)CC3)c1)B(O)O [Ex. 69, 1-(R)-[3-(4-Hydroxybicyclo[2.2.2]oct-1yl)benzoylamino]-4-guanidinobutylboronic acid hydrochloride] |  |  |  |  | 4 times | 3 times | 18 times | 15 times | 0.17 µM | 0.56 µM | 
